Biological target: T1, Adrenergic receptor alpha-2 (Rattus norvegicus, UniProt P22086+P19328+P22909)
T1 sequence (P22086 whole entry): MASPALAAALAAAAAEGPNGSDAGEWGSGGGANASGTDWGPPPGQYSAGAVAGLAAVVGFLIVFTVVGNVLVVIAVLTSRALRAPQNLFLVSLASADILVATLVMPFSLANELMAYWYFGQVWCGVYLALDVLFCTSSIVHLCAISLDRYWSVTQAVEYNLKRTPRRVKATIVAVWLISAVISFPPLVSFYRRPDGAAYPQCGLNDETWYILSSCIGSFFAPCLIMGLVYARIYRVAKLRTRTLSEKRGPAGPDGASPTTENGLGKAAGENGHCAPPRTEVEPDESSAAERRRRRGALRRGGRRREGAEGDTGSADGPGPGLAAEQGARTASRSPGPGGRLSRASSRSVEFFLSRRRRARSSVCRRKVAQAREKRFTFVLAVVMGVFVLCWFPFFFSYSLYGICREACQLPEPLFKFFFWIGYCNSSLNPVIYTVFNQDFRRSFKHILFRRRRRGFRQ
T1 sequence (P19328 whole entry): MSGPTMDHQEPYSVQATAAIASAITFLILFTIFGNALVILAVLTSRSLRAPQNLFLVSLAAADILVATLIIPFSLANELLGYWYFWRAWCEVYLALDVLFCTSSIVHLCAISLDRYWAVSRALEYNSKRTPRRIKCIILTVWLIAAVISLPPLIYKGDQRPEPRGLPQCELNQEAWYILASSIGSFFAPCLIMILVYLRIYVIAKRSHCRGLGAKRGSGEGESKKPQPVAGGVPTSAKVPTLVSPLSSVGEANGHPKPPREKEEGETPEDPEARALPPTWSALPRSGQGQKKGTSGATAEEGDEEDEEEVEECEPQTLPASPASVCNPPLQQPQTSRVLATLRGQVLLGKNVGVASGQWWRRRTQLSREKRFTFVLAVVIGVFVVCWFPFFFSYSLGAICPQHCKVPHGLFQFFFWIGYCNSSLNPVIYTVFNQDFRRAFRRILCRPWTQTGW
T1 sequence (P22909 whole entry): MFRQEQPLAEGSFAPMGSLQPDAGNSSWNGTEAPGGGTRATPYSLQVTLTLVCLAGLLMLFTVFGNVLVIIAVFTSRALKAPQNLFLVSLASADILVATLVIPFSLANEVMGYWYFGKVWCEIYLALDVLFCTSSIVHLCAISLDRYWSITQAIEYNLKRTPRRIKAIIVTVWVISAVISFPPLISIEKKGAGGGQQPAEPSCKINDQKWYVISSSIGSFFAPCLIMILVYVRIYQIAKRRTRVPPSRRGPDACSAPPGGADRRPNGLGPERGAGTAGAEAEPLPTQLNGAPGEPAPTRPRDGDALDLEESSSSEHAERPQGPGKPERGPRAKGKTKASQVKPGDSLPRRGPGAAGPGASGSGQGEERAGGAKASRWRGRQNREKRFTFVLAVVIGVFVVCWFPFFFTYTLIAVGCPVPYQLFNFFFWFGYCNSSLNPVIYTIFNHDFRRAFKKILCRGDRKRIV
Assay: Displacement of [3H]clonidine from Alpha-2 adrenergic receptor of rat brain membranes
Type: cell membranes, Membrane

Question: `c1cc2c(c(NC3=NCCN3)c1)CCCC2` [TRAMAZOLINE] was tested. Which Ki did it give?
Answer: 4.2 nM

Question: For `c1ccc(CC2=NCCN2)cc1` [TOLAZOLINE], which Ki is on record?
Answer: 180 nM

Question: With `COc1cccc(OC)c1OCCNCC1COc2ccccc2O1` (centres undefined) as the compound, how does the Ki read?
Answer: 200 nM

Question: With `C[C@H](N)[C@H](O)c1ccc(O)c(O)c1` [LEVONORDEFRIN] as the compound, how does the Ki read?
Answer: 7.7 nM
